{
  "source": "patent US20250188164A1",
  "about": "“PHARMACEUTICAL COMPOSITION COMPRISING ANTI-CTLA4-ANTI-PD-1 BISPECIFIC ANTIBODY AND CHIAURANIB” (AKESO PHARMACEUTICALS, INC., priority 2022, published 2025)",
  "tested_on": "mixed culture of DC, PBMC and A375 cells",
  "experiment": "Lymphocyte-tumor cell mixed reaction system, cytokine secretion by ELISA",
  "assay_type": "cell-based, human",
  "details": "A375 cells treated with 15 μM chiauranib for 48 h, BiAb004(hG1TM) 300 nM",
  "description": "Freshly isolated PBMCs (from healthy donors) were adhered to the wall overnight. Mononuclear cells were collected. GM-CSF (2000 U/mL, from peprotech, Cat. No. 300-03) and IL-4 (2000 U/mL from peprotech, Cat. No. 200-04) were added. Induction was performed after 3 days of culture. For the iDC group, half of the medium was exchanged, and GM-CSF (2000 U/mL) and IL4 (2000 U/mL) were added. For the mDC group, half of the medium was exchanged, and GM-CSF (2000 U/mL), IFN-γ (50 ng/mL, from Sino Biological, Cat. No. 11725-HNAS-100) and LPS (100 ng/mL, from SIGMA, Cat. No. L6529) were added. The cells were cultured in an incubator for 2 days and frozen for later use.\nA375 cells (purchased from ATCC, agency: Zhongyuan Ltd., Cat. No. CRL-1619) were digested conventionally, collected by centrifugation, and plated on 10 cm dishes at 2×10^6 cells/dish. Chiauranib (from Chipscreen Biosciences, Lot No. 210604) was added to one of the dishes to a final concentration of 15 μM, and a blank control group was set. The mixture was incubated in an incubator at 37° C. and 5% CO2 for 48 h (medium: DMEM+10% FBS). […] The cells were counted and plated as per DC:PBMC=1:10 in 96-well flat-bottom plates. […] The amounts of secretion of IFN-γ (purchased from Dakewe, Cat. No. 1110202) and IL-2 (purchased from Dakewe, Cat. No. 1110202) were measured by an ELISA kit.",
  "data": [
    {"compound": "COc1ccc2c(Oc3ccc4c(C(=O)Nc5ccccc5N)cccc4c3)ccnc2c1", "note": "[chiauranib, N-(2-aminophenyl)-6-(7-methoxyquinoline-4-oxy)-1-naphthamide]", "values": [
      {"measurement": "secretion of IFN-γ", "setting": "supernatants day 3 and day 5, FIG. 17", "value": "effectively promote"},
      {"measurement": "secretion of IL-2", "setting": "supernatants day 3 and day 5, FIG. 18", "value": "effectively promote"}
    ]}
  ]
}
